Laboratory results published in ChEMBL document CHEMBL1201862, “PubChem BioAssay data set” (2004).
Activity calls are given as the source filed them.

Legend:
Nonstructural protein 1 = Nonstructural protein 1 (Influenza A virus, UniProt Q194T2); type: functional, Influenza A virus (A/California/07/2009(H1N1))
[1] = biological target: T1, Probable nicotinate-nucleotide adenylyltransferase (Staphylococcus aureus (strain N315), UniProt P65502); type: functional, Staphylococcus aureus subsp. aureus N315;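 as to IC50 Mean: confirmatory dose-response retesting of NadD inhibitor hits first found in an ultra-high-throughput screen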
cells [2] = type: functional, cell-based
Streptokinase A = biological target: T2, Streptokinase A (Streptococcus pyogenes serotype M1, UniProt P10520); test: S. pyogenes streptokinase expression inhibitors, potency, dose response, plasminogen activation absorbance, OD405 (AID 1914); type: functional, Streptococcus pyogenes M1 GAS;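 also: secreted streptokinase activity via plasminogen activation per viability signal from cell pellet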
T2 sequence (P10520 whole entry): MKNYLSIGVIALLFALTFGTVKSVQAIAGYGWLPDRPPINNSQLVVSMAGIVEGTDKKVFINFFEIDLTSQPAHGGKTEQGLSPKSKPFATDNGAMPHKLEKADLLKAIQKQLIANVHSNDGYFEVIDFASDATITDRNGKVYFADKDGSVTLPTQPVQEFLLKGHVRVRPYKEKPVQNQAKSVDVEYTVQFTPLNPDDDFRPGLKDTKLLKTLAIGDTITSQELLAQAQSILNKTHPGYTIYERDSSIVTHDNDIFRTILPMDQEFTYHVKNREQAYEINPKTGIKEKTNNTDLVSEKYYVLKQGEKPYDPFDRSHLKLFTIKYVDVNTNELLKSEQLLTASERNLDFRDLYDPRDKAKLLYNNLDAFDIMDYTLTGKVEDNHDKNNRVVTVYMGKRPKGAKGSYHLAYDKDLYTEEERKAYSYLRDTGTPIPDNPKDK

[3] = biological target: T1, Probable nicotinate-nucleotide adenylyltransferase; type: functional, Staphylococcus aureus subsp. aureus N315; details: read-out: IC50_Mean
INS1 = test: beta cell apoptosis inhibitors, cytokine rescue, dose response, luminescence, retest (AID 449756); type: functional, cell-based; details: Rattus norvegicus;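 also: cell death triggered by IL-1 beta plus TNF-alpha plus IFN-gamma mixture; protective hits raise ATP signal compared with cytokine alone wells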
cells [4] = type: functional, cell-based; remark: listed apart in the source
[5] = inhibitors of intracellular T. cruzi replication, confirmation, NIH3T3 host cells, beta-gal luminescence (AID 2044); type: functional, cell-based;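 also: intracellular parasites grown in NIH/3T3 mouse fibroblasts as host cells; luminescent beta-galactosidase reporter signal from transgenic T. cruzi replicating inside host cells; inhibitors lower the luminescence signal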
Streptococcus = test: Group A Streptococcus viability loss, dose response, counter-screen for streptokinase expression inhibitor project, luminescence, BacTiterGlo (AID 1915); type: functional, organism-based;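 also: potency for reduction of bacterial viability or growth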
[6] = cytotoxicity toward NIH3T3 fibroblasts, dose response, counter-screen, cell-based, ATP luminescence, mouse fibroblasts (AID 2010); type: functional;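 also: cells exposed to compound for about 90 hours before reading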
[7] = test system: Streptococcus sp. 'group A'; test: growth inhibition of control SK(-) GAS strain, dose response, counter-screen for streptokinase expression inhibitor project, luminescence, kanamycin, BacTiterGlo, confirmation (AID 1900); type: functional, organism-based
[8] = A Cell Based Secondary Assay To Explore Cytotoxicity of Compounds that Sensitize Mycobacterium Tuberculosis to Beta-Lactam Antibiotics.; type: functional
[9] = biological target: T3, Carboxy-terminal domain RNA polymerase II polypeptide A small phosphatase 1 (Homo sapiens, UniProt Q9GZU7); test: inhibitors of CTDSP1, concentration-response testing, biochemical assay, absorbance-based, actives from ultra-high-throughput screening (AID 540297); type: functional
T3 sequence (Q9GZU7 whole entry): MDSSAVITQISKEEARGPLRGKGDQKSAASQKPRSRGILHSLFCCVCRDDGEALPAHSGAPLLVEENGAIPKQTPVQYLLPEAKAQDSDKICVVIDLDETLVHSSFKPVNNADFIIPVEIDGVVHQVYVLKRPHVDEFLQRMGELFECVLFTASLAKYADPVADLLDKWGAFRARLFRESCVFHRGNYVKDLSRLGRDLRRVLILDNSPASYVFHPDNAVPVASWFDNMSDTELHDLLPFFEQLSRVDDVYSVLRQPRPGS

Estrogen receptor = biological target: T4, Estrogen receptor (Homo sapiens, UniProt P03372);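 also: potency for inhibiting coactivator peptide recruitment to the receptor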
T4 sequence (P03372 whole entry): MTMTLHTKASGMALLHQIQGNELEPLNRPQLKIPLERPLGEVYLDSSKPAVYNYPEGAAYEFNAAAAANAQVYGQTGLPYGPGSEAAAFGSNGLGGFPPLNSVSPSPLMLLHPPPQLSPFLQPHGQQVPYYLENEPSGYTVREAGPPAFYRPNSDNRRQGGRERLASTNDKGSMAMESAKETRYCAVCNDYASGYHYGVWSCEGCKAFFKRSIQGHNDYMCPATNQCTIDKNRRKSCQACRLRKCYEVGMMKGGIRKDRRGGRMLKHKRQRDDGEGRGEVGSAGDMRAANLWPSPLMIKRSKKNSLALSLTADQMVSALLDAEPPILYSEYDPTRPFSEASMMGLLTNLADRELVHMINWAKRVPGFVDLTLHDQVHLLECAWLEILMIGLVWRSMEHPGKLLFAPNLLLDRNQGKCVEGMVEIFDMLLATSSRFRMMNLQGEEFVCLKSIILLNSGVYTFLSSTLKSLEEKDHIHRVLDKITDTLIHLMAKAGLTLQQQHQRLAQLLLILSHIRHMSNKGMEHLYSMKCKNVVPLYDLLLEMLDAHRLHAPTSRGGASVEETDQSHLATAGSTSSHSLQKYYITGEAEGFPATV

Estrogen receptor beta [10] = biological target: T5, Estrogen receptor beta (Homo sapiens, UniProt Q92731); test: ERβ–SRC-3 coactivator interaction inhibitors, confirmation, orthogonal assay, biochemical, ELISA, streptavidin-HRP readout (AID 1060)
Estrogen receptor beta [11] = biological target: T5, Estrogen receptor beta
[12] = biological target: T6, Microphthalmia-associated transcription factor (Homo sapiens, UniProt O75030); test: TRPM1 promoter luciferase signal decrease, dose response, MITF inhibitor project, cell-based, SK-MEL-5, cherry-picked, set 3 (AID 493073); type: functional
T6 sequence (O75030 whole entry): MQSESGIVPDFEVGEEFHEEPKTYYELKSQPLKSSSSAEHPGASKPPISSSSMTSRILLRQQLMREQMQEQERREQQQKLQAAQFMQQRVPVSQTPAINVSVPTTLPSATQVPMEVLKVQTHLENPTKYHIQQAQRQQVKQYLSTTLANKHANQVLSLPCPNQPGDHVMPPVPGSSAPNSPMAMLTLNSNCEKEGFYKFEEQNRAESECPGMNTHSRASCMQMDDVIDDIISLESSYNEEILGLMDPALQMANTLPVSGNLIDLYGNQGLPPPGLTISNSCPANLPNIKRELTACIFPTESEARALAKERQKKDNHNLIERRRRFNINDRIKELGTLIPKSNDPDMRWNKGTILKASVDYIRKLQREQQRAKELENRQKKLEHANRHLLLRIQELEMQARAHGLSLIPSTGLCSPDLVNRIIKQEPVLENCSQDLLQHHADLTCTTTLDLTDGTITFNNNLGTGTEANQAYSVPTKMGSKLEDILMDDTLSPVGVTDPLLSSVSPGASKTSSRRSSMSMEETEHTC

cells [13] = test: cells
[14] = HepG2 cell cytotoxicity, dose response, cytotoxicity control, ATP luminescence, cherry-pick, activator set 2 (AID 1053143); type: functional, cell-based
[15] = HEp-2 cell cytotoxicity, dose response, cytotoxicity control for RSV inhibitor project, HTS (AID 2410); type: functional; details: human respiratory syncytial virus
Fatty acid synthase [16] = biological target: T7, Fatty acid synthase (Homo sapiens, UniProt P49327); test: FAS thioesterase domain inhibitors, dose response, biochemical, endpoint fluorescence intensity, uHTS hits (AID 624327); type: functional;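 also: fluorescence from hydrolysis of an O-methyl fluorescein acyl ester substrate by the enzyme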
Fatty acid synthase [17] = biological target: T7, Fatty acid synthase; test: FAS thioesterase domain inhibitors, dose response, biochemical, kinetic fluorescence intensity (AID 624326); type: functional;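 also: rate of fluorescence rise from hydrolysis of a fluorogenic O-methyl fluorescein ester substrate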
[18] = biological target: 26S proteasome non-ATPase regulatory subunit 14 (Homo sapiens, UniProt O00487); test: inhibition of proteasome subunit RPN11 – biochemical, fluorescence polarization, uHTS hits, confirmation (AID 602368); type: functional
[19] = biological target: 72 kDa type IV collagenase (Homo sapiens, UniProt P08253); test: Dose Response validation of uHTS RPN11 inhibitor hits using a MMP-2 Fluorescence assay.; type: functional
Caspase-6 = biological target: T8, Caspase-6 (Homo sapiens, UniProt P55212); test: human caspase-6 inhibitors, dose response, biochemical, VEID-R110 fluorescence, cherry-pick (AID 720632)
T8 sequence (P55212 whole entry): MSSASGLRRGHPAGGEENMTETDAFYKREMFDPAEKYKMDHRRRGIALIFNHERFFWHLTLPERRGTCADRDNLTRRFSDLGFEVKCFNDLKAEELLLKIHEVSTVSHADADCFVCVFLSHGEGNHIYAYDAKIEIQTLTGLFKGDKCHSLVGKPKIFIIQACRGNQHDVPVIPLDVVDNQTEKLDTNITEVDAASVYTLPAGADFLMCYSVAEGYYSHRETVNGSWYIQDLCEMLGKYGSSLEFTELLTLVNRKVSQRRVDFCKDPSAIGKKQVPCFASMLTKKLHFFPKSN

Prothrombin = Prothrombin (Bos taurus, UniProt P00735); test: thrombin inhibition, dose response, biochemical, fluorescence polarization, uHTS hits (AID 602369); type: functional

T7 sequence (P49327 whole entry, the tested form may be a part): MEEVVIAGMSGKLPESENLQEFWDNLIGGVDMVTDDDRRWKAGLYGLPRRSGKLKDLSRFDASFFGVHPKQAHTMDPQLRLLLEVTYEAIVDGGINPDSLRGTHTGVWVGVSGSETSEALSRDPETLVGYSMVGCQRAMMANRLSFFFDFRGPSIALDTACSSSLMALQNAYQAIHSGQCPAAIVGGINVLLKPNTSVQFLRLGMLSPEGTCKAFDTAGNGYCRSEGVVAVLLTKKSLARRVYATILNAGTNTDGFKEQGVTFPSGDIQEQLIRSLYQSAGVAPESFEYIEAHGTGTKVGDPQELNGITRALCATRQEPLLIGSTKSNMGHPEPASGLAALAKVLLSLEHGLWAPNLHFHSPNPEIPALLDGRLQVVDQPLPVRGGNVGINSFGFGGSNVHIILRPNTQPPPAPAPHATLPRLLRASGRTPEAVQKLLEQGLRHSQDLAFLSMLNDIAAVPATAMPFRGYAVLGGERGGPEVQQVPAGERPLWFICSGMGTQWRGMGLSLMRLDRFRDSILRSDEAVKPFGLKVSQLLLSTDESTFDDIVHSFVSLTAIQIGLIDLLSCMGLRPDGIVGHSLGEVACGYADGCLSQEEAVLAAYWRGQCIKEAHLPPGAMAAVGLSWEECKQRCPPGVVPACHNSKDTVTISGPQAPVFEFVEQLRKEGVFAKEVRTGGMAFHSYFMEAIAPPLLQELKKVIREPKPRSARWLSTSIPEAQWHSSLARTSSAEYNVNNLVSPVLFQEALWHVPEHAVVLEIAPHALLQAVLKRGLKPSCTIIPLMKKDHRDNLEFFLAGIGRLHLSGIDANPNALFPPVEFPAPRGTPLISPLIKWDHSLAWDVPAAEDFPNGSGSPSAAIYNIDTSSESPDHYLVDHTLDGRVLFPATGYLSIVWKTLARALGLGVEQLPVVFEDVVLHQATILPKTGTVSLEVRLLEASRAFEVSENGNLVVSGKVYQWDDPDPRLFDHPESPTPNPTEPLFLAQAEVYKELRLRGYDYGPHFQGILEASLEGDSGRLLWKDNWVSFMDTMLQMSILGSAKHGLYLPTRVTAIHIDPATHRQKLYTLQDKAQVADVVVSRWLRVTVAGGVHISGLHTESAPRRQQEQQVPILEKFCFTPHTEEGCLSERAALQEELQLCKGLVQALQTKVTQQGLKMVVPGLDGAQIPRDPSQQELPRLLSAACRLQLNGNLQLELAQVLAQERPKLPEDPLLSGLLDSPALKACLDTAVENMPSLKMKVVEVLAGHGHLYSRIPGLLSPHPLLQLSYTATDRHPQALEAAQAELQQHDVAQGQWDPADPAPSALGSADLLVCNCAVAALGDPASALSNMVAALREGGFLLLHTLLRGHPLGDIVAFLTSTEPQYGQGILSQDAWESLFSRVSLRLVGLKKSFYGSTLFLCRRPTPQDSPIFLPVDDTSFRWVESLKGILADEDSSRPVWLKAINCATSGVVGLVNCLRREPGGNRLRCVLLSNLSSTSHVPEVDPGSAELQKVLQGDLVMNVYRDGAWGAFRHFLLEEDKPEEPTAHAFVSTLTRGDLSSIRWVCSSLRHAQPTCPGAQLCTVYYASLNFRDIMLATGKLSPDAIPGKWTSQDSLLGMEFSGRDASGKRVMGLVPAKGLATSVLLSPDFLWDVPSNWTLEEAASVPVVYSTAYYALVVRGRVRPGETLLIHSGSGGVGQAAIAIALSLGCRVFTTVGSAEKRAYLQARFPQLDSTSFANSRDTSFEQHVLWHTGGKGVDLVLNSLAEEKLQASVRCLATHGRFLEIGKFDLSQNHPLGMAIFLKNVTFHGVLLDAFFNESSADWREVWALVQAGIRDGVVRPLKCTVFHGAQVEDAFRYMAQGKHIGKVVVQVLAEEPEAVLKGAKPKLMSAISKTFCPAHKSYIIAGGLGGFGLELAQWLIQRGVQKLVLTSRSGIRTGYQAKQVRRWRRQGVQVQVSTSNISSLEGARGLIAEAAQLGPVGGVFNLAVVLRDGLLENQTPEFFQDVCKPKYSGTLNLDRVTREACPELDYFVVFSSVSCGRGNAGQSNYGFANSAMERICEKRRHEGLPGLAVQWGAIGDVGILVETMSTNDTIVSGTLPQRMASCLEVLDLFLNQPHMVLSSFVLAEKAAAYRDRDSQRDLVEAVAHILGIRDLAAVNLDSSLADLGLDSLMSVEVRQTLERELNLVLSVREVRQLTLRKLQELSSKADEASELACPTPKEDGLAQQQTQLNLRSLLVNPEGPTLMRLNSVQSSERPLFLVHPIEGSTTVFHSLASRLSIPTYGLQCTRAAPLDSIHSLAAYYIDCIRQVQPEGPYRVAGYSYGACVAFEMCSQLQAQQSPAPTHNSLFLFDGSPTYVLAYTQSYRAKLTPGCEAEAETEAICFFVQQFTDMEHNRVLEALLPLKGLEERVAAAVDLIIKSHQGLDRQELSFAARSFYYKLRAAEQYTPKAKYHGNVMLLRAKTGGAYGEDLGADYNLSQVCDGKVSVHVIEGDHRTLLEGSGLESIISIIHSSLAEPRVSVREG
T1 sequence (P65502 whole entry): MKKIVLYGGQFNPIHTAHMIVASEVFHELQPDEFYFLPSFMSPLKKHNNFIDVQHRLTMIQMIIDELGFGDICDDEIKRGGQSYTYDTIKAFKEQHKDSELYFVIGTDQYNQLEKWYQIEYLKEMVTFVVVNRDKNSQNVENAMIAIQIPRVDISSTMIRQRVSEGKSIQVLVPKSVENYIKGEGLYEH
T5 sequence (Q92731 whole entry): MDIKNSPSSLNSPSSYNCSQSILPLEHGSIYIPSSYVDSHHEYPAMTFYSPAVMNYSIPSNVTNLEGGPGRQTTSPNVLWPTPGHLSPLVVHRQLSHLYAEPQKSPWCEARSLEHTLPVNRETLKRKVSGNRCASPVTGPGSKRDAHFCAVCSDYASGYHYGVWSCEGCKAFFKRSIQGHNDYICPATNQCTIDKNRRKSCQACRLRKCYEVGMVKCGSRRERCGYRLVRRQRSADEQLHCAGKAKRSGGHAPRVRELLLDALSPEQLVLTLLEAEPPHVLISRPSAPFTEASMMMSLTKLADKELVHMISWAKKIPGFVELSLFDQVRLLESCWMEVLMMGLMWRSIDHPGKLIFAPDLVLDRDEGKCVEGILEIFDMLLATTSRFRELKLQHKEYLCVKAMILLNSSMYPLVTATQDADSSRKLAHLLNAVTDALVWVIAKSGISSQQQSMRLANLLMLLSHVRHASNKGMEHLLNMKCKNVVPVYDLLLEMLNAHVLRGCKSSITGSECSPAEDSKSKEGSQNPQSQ
Nonstructural protein 1, sequence (Q194T2 whole entry): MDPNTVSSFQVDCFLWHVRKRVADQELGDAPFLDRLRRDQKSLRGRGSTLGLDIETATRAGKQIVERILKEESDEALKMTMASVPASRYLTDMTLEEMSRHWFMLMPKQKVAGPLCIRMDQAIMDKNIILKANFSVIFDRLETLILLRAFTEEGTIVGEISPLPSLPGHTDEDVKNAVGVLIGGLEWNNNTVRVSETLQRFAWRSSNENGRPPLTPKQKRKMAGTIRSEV
72 kDa type IV collagenase, sequence (P08253 whole entry): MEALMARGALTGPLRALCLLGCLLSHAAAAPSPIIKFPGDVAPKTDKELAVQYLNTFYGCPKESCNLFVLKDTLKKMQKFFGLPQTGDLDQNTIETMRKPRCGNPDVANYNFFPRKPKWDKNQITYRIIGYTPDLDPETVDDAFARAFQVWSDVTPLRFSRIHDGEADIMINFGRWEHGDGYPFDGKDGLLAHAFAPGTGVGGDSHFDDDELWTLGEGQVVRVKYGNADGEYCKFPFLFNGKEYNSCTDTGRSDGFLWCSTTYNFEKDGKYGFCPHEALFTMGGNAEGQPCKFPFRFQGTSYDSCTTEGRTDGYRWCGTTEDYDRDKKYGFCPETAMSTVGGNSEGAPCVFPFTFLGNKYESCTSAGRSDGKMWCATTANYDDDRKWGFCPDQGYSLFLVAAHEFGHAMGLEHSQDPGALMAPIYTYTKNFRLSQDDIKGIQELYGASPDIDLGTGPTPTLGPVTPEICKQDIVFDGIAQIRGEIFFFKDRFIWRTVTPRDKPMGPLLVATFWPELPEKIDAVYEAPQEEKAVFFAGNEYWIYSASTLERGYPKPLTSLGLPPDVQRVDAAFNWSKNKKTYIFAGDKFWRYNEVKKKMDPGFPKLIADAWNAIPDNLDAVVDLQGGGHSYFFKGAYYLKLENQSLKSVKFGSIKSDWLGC
26S proteasome non-ATPase regulatory subunit 14, sequence (O00487 whole entry): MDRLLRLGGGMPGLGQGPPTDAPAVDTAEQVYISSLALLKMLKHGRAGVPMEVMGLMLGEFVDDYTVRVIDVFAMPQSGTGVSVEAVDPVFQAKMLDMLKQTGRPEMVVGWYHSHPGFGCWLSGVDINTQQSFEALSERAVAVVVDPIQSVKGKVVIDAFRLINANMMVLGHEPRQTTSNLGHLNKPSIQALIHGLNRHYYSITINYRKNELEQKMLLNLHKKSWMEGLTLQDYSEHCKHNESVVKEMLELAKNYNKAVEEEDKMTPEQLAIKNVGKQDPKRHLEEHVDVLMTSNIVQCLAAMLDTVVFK

SMILES: Cc1cccc2sc(NNC(=O)c3ccc(S(=O)(=O)N4CCc5ccccc5C4)cc3)nc12
- IC50 (Nonstructural protein 1): > 100 µM (active)
- IC50 [1]: 13.8 µM (active)
- EC50 (cells [2]): > 350 µM (not active)
- EC50 (Streptokinase A): > 150 µM (not active)
- IC50 [3]: 56.7 µM (active)
- AC50 (INS1): 1.8 µM (active)
- EC50 (cells [4]): 12 µM (active)
- EC50 [5]: 0.733 µM (active)
- EC50 (Streptococcus): 33.6 µM (active)
- EC50 [6]: 2.62 µM (active)
- EC50 [7]: 2.4 µM (active)

SMILES: CNC(=Nc1cc(Cl)ccc1Cl)SC1CC(=O)N(c2ccc(C(=O)OC)cc2)C1=O (stereo not given)
- CC50 [8]: > 40 µM (active)
- EC50 (Streptococcus): 12.5 µM (active)
- EC50 [7]: 10.3 µM (active)

SMILES: O=C(c1cc2ncc(Br)cn2n1)N1CCN(C(=O)c2ccco2)CC1
- IC50 [9]: 16.5 µM (active)
- IC50 (Estrogen receptor): 17.9 µM (active)
- IC50 (Estrogen receptor beta [10]): 0.349 µM (not active)
- IC50 (Estrogen receptor beta [11]): 2.73 µM (active)

SMILES: Clc1ccc(-c2c[n+](Cc3cccc(Cl)c3)c3n2CCC3)cc1
- AC50 [12]: 8.77 µM (active)
- EC50 [5]: < 0.1 µM (active)
- EC50 [6]: > 60 µM (not active)
- EC50 (cells [13]): 0.009 µM (active)

SMILES: N#Cc1ccc(C23CC4(C2)[C@H](CN(Cc2cccnc2)[C@@H]4c2ccccc2)C3c2ccccc2)cc1 (stereo not given in full)
- CC50 [8]: > 40 µM (active)

SMILES: Brc1c(CSc2nc3ccccc3o2)nc2ncccn12
- AC50 [14]: > 52 µM (inactive)

SMILES: Cc1ccc2c(C)nc(N=C(N)NS(=O)(=O)c3ccc([N+](=O)[O-])cc3)nc2c1
- CC50 [15]: 45.4 µM (active)
- IC50 (Fatty acid synthase [16]): 10.9 µM (active)
- IC50 (Fatty acid synthase [17]): 8.96 µM (active)
- EC50 [5]: < 0.1 µM (active)
- EC50 [6]: > 60 µM (not active)
- EC50 (cells [13]): 0.273 µM (active)

SMILES: Cc1cccc(NC(=O)CNC(=O)CCc2nc3sc4c(c3c(=O)[nH]2)CCCC4)c1C
- IC50 [18]: 7.12 µM (active)
- IC50 [9]: 2.66 µM (active)
- IC50 [19]: > 100 µM (inactive)
- AC50 (Caspase-6): 7.7 µM (active)
- IC50 (Prothrombin): 43.9 µM (active)
